The test system of this test is STAT6. Nature of the test: Inhibitory test on STAT6 activation: IL-4-induced alkali phosphatase STAT6 reporter in 293 cells stably expressing the STAT6 gene and STAT6 reporter gene. The format is cell-based. The following applies: HEK293; Table 1; 1 ng/ml human recombinant IL-4, 16 hours, 293 cells with STAT6 reporter; read-out: Inhibitory activity IC50 (concentration at which the alkali phosphatase activity induced by IL-4 was inhibited by 50%). The protocol: The inhibitory action of the present compound on activation of STAT6 was evaluated according to the following experiments.
1) Construction of a STAT6 Reporter Gene
An oligonucleotide of SEQ ID NO:1 in which three STAT6-binding regions on a human immunoglobulin germline E gene promoter had been linked was mixed with its complementary chain, thermally denatured and annealed, and 5′- and 3′-ends thereof were cleaved with restriction enzymes Kpn I (Code No. 1068A, Takara Shuzo) and Xba I (Code No. 1093A, Takara Shuzo) respectively, and the resulting fragment was cloned into a Kpn I/Xba I site of pUG-BGH-PLAP vector (described in Molecular Pharmacology, 49:860–873, 1996). To induce a basic transcriptional factor, a TK promoter region of herpes virus was cloned into an Xba I/Hind III (Code No. 1060A, Takara Shuzo) site of the pUG-BGH-PLAP vector. To obtain a stably expressing cell strain, a neomycin resistance gene (PGK-neo expression cassette) was integrated with an Sal I (Code No. 1080A, Takara Shuzo) of this vector. Cloning of the TK promoter and PGK-neo expression cassette was carried out according to Molecular Pharmacology, 49:860–873, 1996.
The underlined sites are a Kpn I recognition site and Xba I recognition site respectively. 2) Construction of an STAT6 Expression Vector
An oligonucleotide of SEQ ID NO:2 containing an initiation codon of STAT6 gene and an oligonucleotide of SEQ ID NO:3 containing a stop codon were used, and total RNA was prepared from human peripheral blood cells by using RNeasy Mini kit (Code No. 74104, OIAGEN). Then, cDNA was prepared by reverse transcription reaction using Takara RNA LA PCR kit (Code No. RR012A, Takara Shuzo) and then subjected to PCR reaction with primers of SEQ ID NOS:2 and 3, to amplify the STAT6 gene. • (SEQ ID NO:2) 5′-[…]-3′ The underlined site is an EcoR I recognition site. • (SEQ ID NO:3) 5′-[…]-3′ The underlined site is an Xho I recognition site.
The PCR product was digested with EcoR I (Code No. 1040A, Takara Shuzo) and Xho I (1094A, Takara Shuzo), and the digested fragment was isolated on an agarose gel. The isolated fragment was integrated into a vector fragment obtained by digesting pcDNA3.1 (+) (Code No. U790-20, Invitrogen) vector with EcoRI/Xho I.
3) Introduction of the Gene and Preparation of a Stably Expressing Cell Strain
Human fetal kidney-derived 293 cells (American Type Culture Collection), 3.0×10^5 cells, were spread on a Falcon tissue culture 6-well plate (Code No. 35-3046, Becton Dickinson) and cultured overnight. 1.5 μg of the prepared STAT6 reporter gene, 1.5 μg of the STAT6 gene and 20 μl of lipofectamine (Code No. 18324-012, GIBCO BRL) were mixed in 0.3 ml OPTI-MEM medium (Code No. 31985-070) and left at room temperature for 20 minutes. Thereafter, 1.2 ml OPTI-MEM medium was further added to the cells washed with OPTI-MEM medium not containing fetal bovine serum, and the cells were cultured for 2 hours. 1.5 ml medium containing fetal bovine serum was added thereto, and the cells were cultured for additional 19 hours. The medium was exchanged with a fresh one, and Geneticin (Code No. G-5013, SIGMA) was added at a concentration of 1 mg/ml, and the cells were cultured, and chemical-resistant cells were selected. The resulting chemical-resistant cells were floated in a medium containing 1 mg/ml Geneticin, then spread at a density of 0.5 cell/well on a 96-well microplate (Code No. 35-3072, Becton Dickinson) and cloned to give a clone expressing alkali phosphatase in response to IL-4.
4) Inhibitory Test on STAT6 Activation
The cells stably expressing the STAT6 gene and STAT6 reporter gene and expressing alkali phosphatase in response to IL-4 were spread at a density of 5000 cells/180 μl/well on a 96-well microplate (Code No. 35-3072, Becton Dickinson) and cultured overnight. […]

Each structure is given as a SMILES string. Structures can show the parent of a compound that is named as a salt.

As to `Fc1ccc(-c2n[nH]cc2-c2ccc3ncc(-c4ccc(Cl)s4)n3c2)cc1` [Example 70, 3-(5-Chloro-2-thienyl)-6-[3-(4-fluorophenyl)-1H-4-pyrazolyl]imidazo[1,2-a]pyridine dihydrochloride], the IC50 fell in the range of 10 to 100 nM.
To `N#Cc1ccc(-c2cnc3ccc(-c4c[nH]nc4-c4ccc(F)cc4)cn23)s1` [Example 71, 5-{6-[3-(4-Fluorophenyl)-1H-4-pyrazolyl]imidazo[1,2-a]-pyridin-3-yl}-2-thiophene carboxynitrile dihydrochloride] belongs 10 to 100 nM.
With `N#Cc1ccc(-c2cnc3ccc(-c4c[nH]nc4-c4ccc(F)cc4)cn23)cc1` [Example 77, 4-{6-[3-(4-Fluorophenyl)-1H-4-pyrazolyl]imidazo[1,2-a]-pyridin-3-yl}benzonitrile dihydrochloride], the IC50 is less than 10 nM.
To `NC(=O)c1ccc(-c2cnc3ccc(-c4c[nH]nc4-c4ccc(F)cc4)cn23)cc1` [Example 78, 4-{6-[3-(4-Fluorophenyl)-1H-4-pyrazolyl]imidazo[1,2-a]-pyridin-3-yl}benzamide dihydrochloride] belongs less than 10 nM; to `CC(=O)NCCCOc1ccc(-c2cnc3ccc(-c4c[nH]nc4-c4ccc(F)cc4)cn23)cc1` [Example 87, N-[3-(4-{6-[3-(4-Fluorophenyl)-1H-4-pyrazolyl]imidazo-[1,2-a]pyridin-3-yl}phenoxy)propyl]acetamide], less than 10 nM; to `NC(=O)[C@@H]1CCCN1Cc1ccc(-c2cnc3ccc(-c4c[nH]nc4-c4ccc(F)cc4)cn23)s1` [Example 92, (2S)-1-[(5-{6-[3-(4-Fluorophenyl)-1H-4-pyrazolyl]-imidazo-[1,2-a]pyridin-3-yl}-2-thienyl)methyl]tetrahydro-1H-2-pyrrole carboxyamide trihydrochloride], less than 10 nM.
For the compound `CS(=O)(=O)c1ccc(-c2n[nH]cc2-c2ccc3ncc(-c4ccc(F)cc4)n3c2)cc1` [Example 101, 3-(4-Fluorophenyl)-6-{3-[4-(methylsulfonyl)phenyl]-1H-4-pyrazolyl}imidazo[1,2-a]pyridine dihydrochloride], the IC50 fell in the range of 10 to 100 nM.
With `CS(=O)(=O)c1ccc(-c2n[nH]cc2-c2ccc3ncc(-c4ccc(C#N)cc4)n3c2)cc1` [Example 102, 4–6-(3-[4-(Methylsulfonyl)phenyl]-1H-4-pyrazolyl}imidazo-[1,2-a]pyridin-3-yl)benzonitrile dihydrochloride], the IC50 lay within 10 to 100 nM.
To `N#Cc1ccc(-c2n[nH]cc2-c2ccc3ncc(-c4ccc(C(N)=O)cc4)n3c2)cc1` [Example 108, 4-{6-[3-(4-Cyanophenyl)-1H-4-pyrazolyl]imidazo[1,2-a]-pyridin-3-yl}benzamide dihydrochloride] belongs less than 10 nM; to `N#Cc1ccc(-c2n[nH]cc2-c2ccc3ncc(-c4ccc(CN5CCC[C@H]5C(N)=O)s4)n3c2)cc1` [Example 109, (2S)-1-{[(5-{6-[3-(4-Cyanophenyl)-1H-4-pyrazolyl]imidazo-[1,2-a]pyridin-3-yl}-2-thienyl)methyl]tetrahydro-1H-2-pyrrolecarboxyamidetrihydrochloride], less than 10 nM; to `O=C(c1ccc(-c2n[nH]cc2-c2ccc3ncc(-c4ccccn4)n3c2)cc1)N1CCOCC1` [Example 115, Morpholino(4-{4-[3-(2-pyridyl)imidazo[1,2-a]pyridin-6-yl]-1H-3-pyrazolyl}phenyl)methanone], less than 10 nM.
To `Cc1n[nH]cc1-c1ccc2ncc(-c3ccc(CN4CCC[C@H]4C(N)=O)s3)n2c1` [Example 120, (2S)-1-({5-[6-(3-Methyl-1H-4-pyrazolyl)imidazo[1,2-a]-pyridin-3-yl]-2-thienyl}methyl)tetrahydro-1H-2-pyrrole carboxyamide trihydrochloride] belongs less than 10 nM.
To `N#Cc1ccc(-c2n[nH]cc2-c2ccc3ncn(-c4ccc(C#N)cn4)c3c2)cc1` [Example 148, 6-{6-[3-(4-Cyanophenyl)-1H-4-pyrazolyl]-1H-benzo[d]-imidazol-1-yl}nicotinonitrile trihydrochloride] belongs less than 10 nM; to `CN1CCN(c2ccnc3ccc(-c4c[nH]nc4-c4ccc(F)cc4)cc23)CC1` [Example 203, 6-[3-(4-Fluorophenyl)-1H-4-pyrazolyl]-4-(4-methylpiperazin-1-yl)quinoline dihydrochloride], 10 to 100 nM.
With `Cc1n[nH]cc1-c1ccc2nccc(N3CCN(C(=O)Nc4ccccc4)CC3)c2c1` [Example 212, N-Phenyl-4-[6-(3-methyl-1H-4-pyrazolyl)-4-quinolyl]-1-piperazine carboxamide dihydrochloride], the IC50 is less than 10 nM.
With `O=C(N1CCCC1)N1CCN(c2ccnc3ccc(-c4c[nH]nc4C(F)(F)F)cc23)CC1` [Example 224, Tetrahydro-1H-1-pyrrolyl{4-[6-(3-trifluoromethyl-1H-pyrazolyl)-4-quinolyl]piperazin-1-yl}methanone], the IC50 was less than 10 nM.
As to `Cc1n[nH]cc1-c1ccc2nccc(N3CCN(C(=O)N(C)CCN(C)C)CC3)c2c1` [Example 227, N-[2-(Dimethylamino)ethyl]-N-methyl-4-[6-(3-methyl-1H-4-pyrazolyl)-4-quinolyl]-1-piperazine carboxamide dihydrochloride], the IC50 lay in the range of 10 to 100 nM.
To `COC1CCN(c2ccnc3ccc(-c4c[nH]nc4C)cc23)CC1` [Example 230, 4-(4-Methoxypiperidino)-6-(3-methyl-1H-4-pyrazolyl)quinoline dihydrochloride] belongs less than 10 nM; to `Cc1n[nH]cc1-c1ccc2nccc(N3CCC(Oc4ccc(S(C)(=O)=O)cc4)CC3)c2c1` [Example 239, 6-(3-Methyl-1H-4-pyrazolyl)-4-{4-[4-(methylsulfonyl)-phenoxy]piperidino}quinoline dihydrochloride], less than 10 nM.
For `COc1ccc(-c2ncnc3ccc(-c4c[nH]nc4-c4ccc(F)cc4)cc23)cc1` [Example 254, 6-[3-(4-Fluorophenyl)-1H-4-pyrazolyl]-4-[4-(methoxyphenyl)-quinazolinedihydrochloride], the IC50 was in the range of 10 to 100 nM.
To `COc1ccc(-c2n[nH]cc2-c2ccc3ncnc(-c4ccc(S(C)(=O)=O)s4)c3c2)cc1OC` [Example 261, 6-[3-(3,4-Dimethoxyphenyl)-1H-4-pyrazolyl]-4-[5-(methylsulfonyl)-2-thienyl]quinazoline dihydrochloride] belongs 100 to 1000 nM; to `FC(F)(F)c1cccc(N2CCN(c3ncnc4ccc(-c5cn[nH]c5)cc34)CC2)c1` [Example 265, 6-(1H-4-Pyrazolyl)-4-{4-[3-(trifluoromethyl)phenyl]-piperazin-1-yl}quinazoline trihydrochloride], 10 to 100 nM.
Take `Clc1ccccc1N1CCN(c2ncnc3ccc(-c4cn[nH]c4)cc23)CC1` [Example 287, 4-[4-(2-Chlorophenyl)piperazin-1-yl]-6-(1H-4-pyrazolyl)-quinazoline]: the IC50 was in the range of 10 to 100 nM.
To `CN(C(=O)N1CCOCC1)c1ccc(-c2n[nH]cc2-c2ccc3ncc(-c4ccccn4)n3c2)cc1` [Example 534, Morpholine-4-carboxylic acid methyl(4-[4-(3-pyridin-2-ylimidazo[1,2-a]pyridin-6-yl)-1H-pyrazol-3-yl]phenyl} amide] belongs less than 10 nM.

(Values after patent US7074801B1, “Nitrogen-containing condensed cyclic compound having a pyrazolyl group as a substituent group and pharmaceutical composition thereof” (Eisai Co., Ltd., priority 2001, dated 2006).)
